Assay results reported in paper PMC6220849, “Mechanistic and structural studies of KDM‐catalysed demethylation of histone 1 isotype 4 at lysine 26” (Febs Letters, 2018).
Square brackets hold non-standard residues; d marks the D form. Ends that are not written are not given here. Lys(Me3) = C[N+](C)(C)CCCC[C@H](N)C(=O)O

Experiments:
KDM3A (KDM3A515–1317) = experiment: MALDI-TOF MS demethylation activity assay, KDM3A; type: biochemical, human; design: key: 🟢: Indicates that clear demethylation activity was observed; 🟡: Indicates that low level demethylation activity was observed (<10% conversion after 1 h); 🔴: Indicates no activity under the stated conditions (1 μM KDM, 10 μM peptide); 🟡*: *Indicates demethylation activity was only observed with 5 μM KDM; conditions: peptide as substrate, 1 μM KDM, 10 μM peptide, 50 mM HEPES pH 7.5, Fe(II) 10 μM, ascorbate 100 μM, 2OG 200 μM, 1 mM TCEP, 1 h at 37 °C
Protocol: (§1) Recombinant proteins (1 μM) were incubated with peptides (10 μM, sequences are given in Table S1) in 50 mM HEPES, pH 7.5 with addition of Fe(II) ammonium sulfate (10 μM), sodium ascorbate (100 μM) and 2‐oxoglutaric acid (200 μM). Reactions with KDM3A and KDM7A also contained 1 mM tris(2‐carboxyethyl)phosphine hydrochloride. No enzyme reactions were included as negative controls. Reactions were incubated for 1 h at 37 °C before being quenched with 1 : 1 (v/v) methanol. Analysis was carried out by MALDI‐TOF MS (Bruker, Billerica, MA, USA), with demethylation observed as mass shifts of 14 Da.
(§2) The propensity of human JmjC KDMs to catalyse demethylation at H1.4K26 was investigated using recombinant forms of the catalytic domains of representatives of each human JmjC KDM subfamily (KDM2‐7) and fragment peptides (Table S1) 37. Three peptides with identical sequences, corresponding to residues 18–32 of histone H1.4 (H2N‐[…]‐CONH2), but containing either a N ^ε‐tri‐, di‐ or monomethyllysine at K26 were synthesised (Fig. 1B and Table S1). Activity assays monitoring JmjC KDM‐catalysed demethylation of the peptides were then carried out; samples were prepared containing each peptide, 2‐oxoglutarate (2OG), ferrous iron, ascorbate and individual representatives from each JmjC KDM subfamily (KDM2A 38, KDM3A 21, KDM4E 22, KDM5C 39, 40, KDM6B 41, KDM7A 42).

KDM2A (KDM2A1–557) = experiment: MALDI-TOF MS demethylation activity assay, KDM2A; type: biochemical, human; design: key: 🟢: Indicates that clear demethylation activity was observed; 🟡: Indicates that low level demethylation activity was observed (<10% conversion after 1 h); 🔴: Indicates no activity under the stated conditions (1 μM KDM, 10 μM peptide); 🟡*: *Indicates demethylation activity was only observed with 5 μM KDM; conditions: peptide as substrate, 1 μM KDM, 10 μM peptide, 50 mM HEPES pH 7.5, Fe(II) 10 μM, ascorbate 100 μM, 2OG 200 μM, 1 h at 37 °C
Protocol: as §1, §2

KDM4C (KDM4C1–359) = experiment: MALDI-TOF MS demethylation activity assay, KDM4C; type: biochemical, human; design: key: 🟢: Indicates that clear demethylation activity was observed; 🟡: Indicates that low level demethylation activity was observed (<10% conversion after 1 h); 🔴: Indicates no activity under the stated conditions (1 μM KDM, 10 μM peptide); 🟡*: *Indicates demethylation activity was only observed with 5 μM KDM; conditions: peptide as substrate, 1 μM KDM, 10 μM peptide, 50 mM HEPES pH 7.5, Fe(II) 10 μM, ascorbate 100 μM, 2OG 200 μM, 1 h at 37 °C
Protocol: as §1
Given the activity observed with KDM4E and KDM7A, we decided to investigate the intra‐subfamily conservation of this demethylation activity. The demethylation activity of the other subfamily members (KDM4A‐D and KDM7B) was therefore screened. […] Note that as with H3K9, demethylation of the monomethylated H1.4K26 peptide was only observed with KDM4E, under the stated conditions 24.

recombinant human KDM4A = biological target: T1, recombinant human KDM4A (Homo sapiens, UniProt O75164); experiment: Formaldehyde dehydrogenase (FDH)-coupled demethylation assay, Michaelis–Menten kinetics; type: biochemical; conditions: peptide as substrate
T1 construct: recombinantly expressed as reported either in Escherichia coli (KDM2A1–557 25, KDM4A1–359 26); His6 (N); made in house; host or cells: Escherichia coli
T1 sequence (O75164 1-359): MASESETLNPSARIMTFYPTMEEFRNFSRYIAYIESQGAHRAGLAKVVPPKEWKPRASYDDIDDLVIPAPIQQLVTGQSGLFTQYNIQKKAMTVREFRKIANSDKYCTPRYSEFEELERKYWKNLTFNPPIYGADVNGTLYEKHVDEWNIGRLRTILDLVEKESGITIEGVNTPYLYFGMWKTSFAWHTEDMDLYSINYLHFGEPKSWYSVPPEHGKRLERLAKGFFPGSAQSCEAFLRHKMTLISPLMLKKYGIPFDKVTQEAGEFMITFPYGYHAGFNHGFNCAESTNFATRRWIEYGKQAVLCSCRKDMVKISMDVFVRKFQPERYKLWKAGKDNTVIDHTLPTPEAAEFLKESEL
Protocol: Kinetic parameters for KDM4 enzymes were determined by use of an FDH (formaldehyde dehydrogenase)/NAD^+‐coupled) assay for quantification of the formaldehyde reaction byproduct, as previously described 27. […] Specific activities were measured using a 100‐μM peptide. For Michaelis–Menten experiments, peptide concentrations were varied. Reactions were monitored using a PHERAstar FS plate reader (BMG Labtech, Ortenberg, Germany) with 355 nm excitation and 460 nm emission. Kinetic parameters were calculated from the reaction rate during the initial linear phase of formaldehyde production, which were used to calculate specific activities or fitted to Michaelis–Menten equations using […] PRISM (GraphPad Software, La Jolla, CA, USA).
Michaelis–Menten kinetics were then conducted with KDM4A. Samples containing KDM4A, 2OG, ascorbate, H1.4K26me3 peptide, NAD^+ and FDH were analysed over time and kinetic parameters were determined by recording the initial reaction rates of NADH production (corresponding to enzymatic production of formaldehyde) at varying peptide concentration.

KDM6B (KDM6B1141–1590) = experiment: MALDI-TOF MS demethylation activity assay, KDM6B; type: biochemical, human; design: key: 🟢: Indicates that clear demethylation activity was observed; 🟡: Indicates that low level demethylation activity was observed (<10% conversion after 1 h); 🔴: Indicates no activity under the stated conditions (1 μM KDM, 10 μM peptide); 🟡*: *Indicates demethylation activity was only observed with 5 μM KDM; conditions: peptide as substrate, 1 μM KDM, 10 μM peptide, 50 mM HEPES pH 7.5, Fe(II) 10 μM, ascorbate 100 μM, 2OG 200 μM, 1 h at 37 °C
Protocol: as §1, §2

[1] = concentration varied, FDH/NAD+-coupled fluorescence assay, 50 mM HEPES pH 7.5, 0.01% Tween-20, 2OG 200 μM, KDM4A, mean and standard deviation of three independent replicates, SD

- K M (recombinant human KDM4A; [1]): 32.3 ± 6.4 µM
- k cat (recombinant human KDM4A; [1]): 0.32 ± 0.049 s⁻¹
- k cat/K M (recombinant human KDM4A; FDH-coupled assay, ratio of k cat (s^−1) and K M (μM)): 9800 M⁻¹ s⁻¹
Substance: TPVKKKAR[Lys(Me3)]SAGAAK [H1.4(18–32)K26me3, peptide of residues 18–32 of histone H1.4 with N ε-trimethyllysine at K26]
- demethylation activity on methylated H1.4 peptide (KDM3A (KDM3A515–1317)): 🔴
- demethylation activity on methylated H1.4 peptide (KDM2A (KDM2A1–557)): 🔴
- demethylation activity on methylated H1.4 peptide (KDM4C (KDM4C1–359)): 🟢
- demethylation activity on methylated H1.4 peptide (KDM6B (KDM6B1141–1590)): 🔴
